# Experimental data as given in patent US11129782B2, “Derivatives of PPD useful for coloring hair and skin” (National University of Singapore, priority 2017, dated 2021).
# Legend:
# IL-8 = IL-8 ELISA on THP-1 cell supernatants; type: cell-based, human; details: preliminary ELISA, CV75
# Description: For cytokine profiling in THP-1, supernatants from wells were collected and then used for cytokine analysis by a Chemokine immunosorbent assay Bio-legend ELISA Max kit. The levels of available IL-8 protein from THP-1 cell supernatants was estimated using this kit which are regulated upon activation of THP-1 model. Surface receptor expression of human CD-86, CD-54, MHC-I and IL-T3 were analyzed by flow cytometry using standard BD FACS analyzer with PE and FITC fluorescent labeled antibodies from Biolegend and e Bioscience.
# In order to understand the effect of modified PPD hairdyes on THP-1 immune sensitization, a certain degree of Cytotoxicity at CV75% viable where 25% cell death is required before evaluation of supernatants in THP-1 models for expression of cytokine IL-8 and receptor expression of CD86, CD54, MHC-I and IL-T3 surface receptors upon treatment with standard PPD and modified hair dye compounds. Most allergens show a specific dose-dependent alteration of CD86 and/or CD54 expression or secretion of cytokine profiles. But depending on chemical, the alteration pattern may vary.
# [1] = system: lysine peptide (Ac-RFAAKAA-COOH); assay: Direct Peptide Reactivity Assay, lysine peptide; details: for % of Lysine depletion, Avg / % of Lysine depletion, Rep 2 / % of Lysine depletion, Rep 3 / Reactivity Class: 1:50; for % of Lysine depletion, Rep 1: peptide 0.02 mM : test chemical 1 mM (1:50); for Reactivity Class: lysine
# Description: The mass spectrometric analysis was performed by use of a AB SCIEX QTRAP 5500 tandem mass spectrometry (MS/MS) system (AB SCIEX, Framingham, Mass., USA) operating in triple quadrupole positive mode (ESI+) equipped with an AB Sciex Turbo Ion Spray interface. Acquisition and analysis of data were performed with Analyst software ver. 1.6.2 (Applied Biosystems).
compound,measurement,setting,value
"Nc1ccc(N)cc1 [PPD, para-phenylenediamine, reference compound]",IL-8 expression,IL-8,increased expression
same,"% of Lysine depletion, Avg",[1]; 20 min,14.6%
same,"% of Lysine depletion, Rep 2",[1]; 20 min,14.4%
same,"% of Lysine depletion, Rep 3",[1]; 20 min,14.6%
same,"% of Lysine depletion, Rep 1",[1]; 20 min,14.9%
same,"% of Lysine depletion, Avg",[1]; 24 h,33.3%
same,"% of Lysine depletion, Rep 2",[1]; 24 h,33.1%
same,"% of Lysine depletion, Rep 3",[1]; 24 h,33.9%
same,"% of Lysine depletion, Rep 1",[1]; 24 h,32.8%
same,Reactivity Class,[1]; 20 min,Low
same,Reactivity Class,[1]; 24 h,Moderate
